Source: paper PMC3726004 (Bioorganic & medicinal chemistry, 2009)

Tests used:
α4β2* nAChRs [1] = molecular target: T1, α4β2* nAChRs (Rattus norvegicus, UniProt P09483+P12390); assay: nicotine-evoked 86Rb+ efflux from rat thalamic synaptosomes; assay type: biochemical
α4β2* nAChRs [2] = molecular target: T1, α4β2* nAChRs; assay: [3H]nicotine; assay type: binding
[3] = molecular target: serotonin transporter (SERT) (Rattus norvegicus, UniProt P31652); assay: [3H]5-HT uptake into rat hippocampal synaptosomes; assay type: biochemical
VMAT2 = VMAT2 (Rattus norvegicus, UniProt Q01827); assay: [3H]MTBZ or [3H]DTBZ binding to rat synaptic vesicle membranes
VMAT2, sequence (Q01827 whole entry): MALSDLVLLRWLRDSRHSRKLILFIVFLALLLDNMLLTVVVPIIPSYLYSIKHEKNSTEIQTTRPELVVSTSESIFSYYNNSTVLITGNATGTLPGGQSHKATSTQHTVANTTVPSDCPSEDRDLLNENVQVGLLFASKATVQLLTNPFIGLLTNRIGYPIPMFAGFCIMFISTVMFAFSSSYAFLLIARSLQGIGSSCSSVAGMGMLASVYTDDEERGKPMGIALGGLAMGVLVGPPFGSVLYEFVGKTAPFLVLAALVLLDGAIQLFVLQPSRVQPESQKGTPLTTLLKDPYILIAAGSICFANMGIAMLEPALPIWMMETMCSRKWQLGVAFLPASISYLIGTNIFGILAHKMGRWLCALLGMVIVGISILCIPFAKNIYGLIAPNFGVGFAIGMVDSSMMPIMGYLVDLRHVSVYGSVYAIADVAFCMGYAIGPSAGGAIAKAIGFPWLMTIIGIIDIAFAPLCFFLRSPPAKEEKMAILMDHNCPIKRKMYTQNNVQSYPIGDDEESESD

T1 sequence (P09483 31-630): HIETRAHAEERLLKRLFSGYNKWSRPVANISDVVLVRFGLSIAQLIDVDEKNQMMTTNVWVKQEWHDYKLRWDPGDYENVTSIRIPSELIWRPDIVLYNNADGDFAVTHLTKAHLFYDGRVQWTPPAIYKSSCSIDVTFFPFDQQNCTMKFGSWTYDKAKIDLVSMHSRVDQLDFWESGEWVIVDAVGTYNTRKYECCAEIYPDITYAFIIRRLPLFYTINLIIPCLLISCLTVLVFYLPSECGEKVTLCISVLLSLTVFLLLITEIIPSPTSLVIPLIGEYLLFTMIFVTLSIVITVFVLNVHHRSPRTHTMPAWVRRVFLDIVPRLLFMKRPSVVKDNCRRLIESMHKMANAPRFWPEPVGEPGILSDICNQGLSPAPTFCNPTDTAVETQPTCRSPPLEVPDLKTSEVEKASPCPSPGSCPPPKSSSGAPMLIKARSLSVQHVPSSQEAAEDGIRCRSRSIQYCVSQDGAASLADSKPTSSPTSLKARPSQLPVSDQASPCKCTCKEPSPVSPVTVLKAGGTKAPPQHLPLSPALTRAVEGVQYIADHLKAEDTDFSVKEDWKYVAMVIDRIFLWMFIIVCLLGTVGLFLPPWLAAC
T1 sequence (P12390 25-500): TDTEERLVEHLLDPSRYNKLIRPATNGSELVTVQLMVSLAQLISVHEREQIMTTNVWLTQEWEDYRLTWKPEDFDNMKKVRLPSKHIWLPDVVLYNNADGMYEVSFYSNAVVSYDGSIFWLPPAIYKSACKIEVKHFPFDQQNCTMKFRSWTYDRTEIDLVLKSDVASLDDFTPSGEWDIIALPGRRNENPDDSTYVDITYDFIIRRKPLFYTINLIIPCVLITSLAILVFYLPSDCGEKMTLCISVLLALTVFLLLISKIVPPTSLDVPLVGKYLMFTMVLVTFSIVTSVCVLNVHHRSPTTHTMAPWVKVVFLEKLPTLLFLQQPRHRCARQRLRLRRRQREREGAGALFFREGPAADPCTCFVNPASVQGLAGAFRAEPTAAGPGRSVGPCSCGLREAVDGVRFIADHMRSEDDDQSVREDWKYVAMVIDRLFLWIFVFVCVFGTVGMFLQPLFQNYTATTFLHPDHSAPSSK
serotonin transporter (SERT), sequence (P31652 whole entry): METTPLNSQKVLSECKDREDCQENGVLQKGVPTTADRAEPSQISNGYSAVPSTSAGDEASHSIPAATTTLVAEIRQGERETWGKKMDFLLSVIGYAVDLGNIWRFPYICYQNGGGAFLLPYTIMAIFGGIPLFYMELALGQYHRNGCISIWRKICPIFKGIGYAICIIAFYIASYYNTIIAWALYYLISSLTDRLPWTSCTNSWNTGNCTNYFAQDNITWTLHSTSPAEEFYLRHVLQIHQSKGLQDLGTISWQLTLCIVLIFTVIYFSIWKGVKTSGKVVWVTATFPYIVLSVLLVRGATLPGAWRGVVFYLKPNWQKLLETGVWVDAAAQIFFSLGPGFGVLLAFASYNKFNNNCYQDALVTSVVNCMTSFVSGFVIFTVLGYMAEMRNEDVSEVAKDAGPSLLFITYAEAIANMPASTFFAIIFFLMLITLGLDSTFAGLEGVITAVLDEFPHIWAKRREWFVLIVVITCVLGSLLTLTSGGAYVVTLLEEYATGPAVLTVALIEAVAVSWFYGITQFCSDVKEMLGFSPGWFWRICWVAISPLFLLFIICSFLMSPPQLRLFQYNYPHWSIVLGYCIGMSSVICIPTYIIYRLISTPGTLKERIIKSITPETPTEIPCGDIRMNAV

SMILES	fold less potent than lobeline in inhibiting [3H]nicotine binding (α4β2*) (α4β2* nAChRs [2])	potency compared with lobeline at VMAT2 (VMAT2)	other results
CN1C(CC(=O)c2ccccc2)CCC[C@H]1CC(OC(=O)c1ccccc1)c1ccccc1.Cl (stereo in doubt) [Compound 2, (2S, 6S, 2R)-2-[6-(2-Benzoyloxy-2-phenylethyl)-1-methylpiperidin-2-yl]-1-phenylethanone hydrochloride]	215–4800 fold		extent of inhibition of nicotine-evoked 86Rb+ efflux (α4β2* nAChRs [1]): completely inhibited; fold less potent than analog 10 in the [3H]nicotine binding assay (α4β2* nAChRs [2]): 360 fold
CC(=O)OC(C[C@@H]1CCCC(CC(=O)c2ccccc2)N1C)c1ccccc1.Cl (stereo in doubt) [Compound 5, (2S, 6S, 2R)-2-[6-(2-Acetyloxy-2-phenylethyl)-1-methylpiperidin-2-yl]-1-phenylethanone hydrochloride]	15 to 125 fold	equipotent	potency compared with lobeline at SERT [3]: equipotent
CCC(=O)OC(C[C@@H]1CCCC(CC(=O)c2ccccc2)N1C)c1ccccc1.Cl (stereo in doubt) [Compound 6, (2S, 6S, 2R)-2-[6-(2-Propionyloxy-2-phenylethyl)-1-methylpiperidin-2-yl]-1-phenylethanone hydrochloride]	15 to 125 fold		
CCCC(=O)OC(C[C@@H]1CCCC(CC(=O)c2ccccc2)N1C)c1ccccc1.Cl (stereo in doubt) [Compound 7, (2S, 6S, 2R)-2-[6-(2-Butyryloxy-2-phenylethyl)-1-methylpiperidin-2-yl]-1-phenylethanone hydrochloride]	15 to 125 fold		
CC(C)C(=O)OC(C[C@@H]1CCCC(CC(=O)c2ccccc2)N1C)c1ccccc1.Cl (stereo in doubt) [Compound 8, (2S, 6S, 2R)-2-[6-(2-Isobutyryloxy-2-phenylethyl)-1-methylpiperidin-2-yl]-1-phenylethanone hydrochloride]	15 to 125 fold		
CN1C(CC(=O)c2ccccc2)CCC[C@H]1CC(OS(=O)(=O)c1ccccc1)c1ccccc1.Cl (stereo in doubt) [Compound 10, (2S, 6S, 2R)-2-[6-(2-Benzenesulfonyloxy-2-phenylethyl)-1-methylpiperidin-2-yl]-1-phenylethanone hydrochloride]		equipotent	potency compared with lobeline at SERT [3]: equipotent; extent of inhibition of nicotine-evoked 86Rb+ efflux (α4β2* nAChRs [1]): completely inhibited
Cc1ccc(S(=O)(=O)OC(C[C@@H]2CCCC(CC(=O)c3ccccc3)N2C)c2ccccc2)cc1.Cl (stereo in doubt) [Compound 11, (2S, 6S, 2R)-2-[6-(2-p-Toluenesulfonyloxy-2-phenylethyl)-1-methylpiperidin-2-yl]-1-phenylethanone hydrochloride]			potency compared with lobeline at α4β2* nAChRs ([3H]nicotine binding) (α4β2* nAChRs [2]): equipotent
COc1ccc(C(=O)O[C@@H](C[C@@H]2CCC[C@H](CC(=O)c3ccccc3)N2C)c2ccccc2)cc1.Cl [Compound 4, (2S, 6S, 2R)-2-[6-(2-Anisoyloxy-2-phenylethyl)-1-methylpiperidin-2-yl]-1-phenylethanone hydrochloride]	215–4800 fold	equipotent	
CN1[C@@H](CC(=O)c2ccccc2)CCC[C@H]1C[C@H](OC(=O)c1cccs1)c1ccccc1.Cl [Compound 9, (2S, 6S, 2R)-2-[6-(2-(2-Thiophen)-carboxyl-2-phenylethyl)-1-methylpiperidin-2-yl]-1-phenylethanone hydrochloride]	215–4800 fold		
